According to ChEMBL document CHEMBL5584320, “Pemuchiamides A and B, Proline-Rich Linear Lipopeptides, Isolated from a Marine Hormoscilla sp. Cyanobacterium” (J Nat Prod, 2024):

How the values were obtained:
HL-60 = experiment: Growth inhibition of human HL-60 cells assessed as reduction cell viability incubated for 72 hrs by MTT assay; type: functional, cell-based; conditions: HL-60, 72 h
HeLa = experiment: Growth inhibition of human HeLa cells assessed as reduction cell viability incubated for 72 hrs by MTT assay; type: functional, cell-based
[1] = tested on: Trypanosoma brucei rhodesiense; experiment: Antitrypanosomal activity against blood stream form of Trypanosoma brucei rhodesiense IL-1501 assessed as growth inhibition incubated for 69 hrs by alamar blue staining based microplate fluorescence scanner analysis; type: functional, organism-based; conditions: IL-1501, 69 h

| Compound | IC50 (HL-60) [nM] | IC50 (HeLa) [nM] | IC50 [1] [nM] |
| --- | --- | --- | --- |
| CC[C@H](C)[C@H](NC(=O)[C@@H]1CCCN1C(=O)[C@@H](CC(C)C)NC(=O)[C@H]1CSC([C@@H]2CCCN2C(=O)[C@@H]2CCCN2C(=O)[C@@H](Cc2ccccc2)N(C)C(=O)CNC(=O)[C@@H](NC(=O)C[C@H](O)CNC(=O)CCCc2ccc(O)cc2)C(C)C)=N1)C(=O)N[C@H](Cc1ccccc1)C(=O)N1CCC[C@H]1C(=O)OC | 2100 | 3900 | 5400 |
| N=C(N)c1ccc(OCCCCCOc2ccc(C(=N)N)cc2)cc1 [PENTAMIDINE] |  |  | 4 |
| CC[C@H](C)[C@H](NC(=O)[C@@H]1CCCN1C(=O)[C@@H](CC(C)C)NC(=O)[C@H]1CSC([C@@H]2CCCN2C(=O)[C@@H]2CCCN2C(=O)[C@@H](Cc2ccccc2)N(C)C(=O)CNC(=O)[C@@H](NC(=O)CCCNC(=O)CCCc2ccc(O)cc2)C(C)C)=N1)C(=O)N[C@H](Cc1ccccc1)C(=O)N1CCC[C@H]1C(=O)OC | 1400 | 2900 | 630 |
| COc1cccc2c1C(=O)c1c(O)c3c(c(O)c1C2=O)C[C@@](O)(C(=O)CO)C[C@@H]3O[C@H]1C[C@H](N)[C@H](O)[C@H](C)O1 [DOXORUBICIN] | 11 | 290 |  |
